Reference: US20240270821A1, “GIP/GLP1/GCG TRI-RECEPTOR AGONISTS AND USES THEREOF” (priority 2023, published 2024)
Where two headings read alike, the source gives them in different places. Marks after values point to notes of the source that are not given here. Starred links: 1 amine or outer side, 2 acyl side, 3 side chain; linkers in the order of their positions; H or OH if unused. Non-standard residues stand in square brackets, D forms with d. Groups on a side chain read outwards from the residue. *: point of attachment. C20 diacid = O=C(O)CCCCCCCCCCCCCCCCCCC(=O)*; C18 diacid = O=C(O)CCCCCCCCCCCCCCCCC(=O)*; γGlu = O=C(O)[C@H](CCC(=O)[*:2])N[*:1]; αMeL = CC(C)C[C@](C)(N)C(=O)O; AEEA = NCCOCCOCC(=O)O; Aib = CC(C)(N)C(=O)O

Tests used:
hGIPR [1] = target: T1, hGIPR (Homo sapiens, UniProt P48546); assay: Functional cAMP activation in the presence of 0.1% casein (no HSA); assay type: cell-based;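 also: intracellular cAMP rise after 30 min at 37 °C read by HTRF against a standard curve, scaled between buffer alone (0%) and top control ligand concentration (100%), four-parameter fit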
T1 sequence (P48546 22-466): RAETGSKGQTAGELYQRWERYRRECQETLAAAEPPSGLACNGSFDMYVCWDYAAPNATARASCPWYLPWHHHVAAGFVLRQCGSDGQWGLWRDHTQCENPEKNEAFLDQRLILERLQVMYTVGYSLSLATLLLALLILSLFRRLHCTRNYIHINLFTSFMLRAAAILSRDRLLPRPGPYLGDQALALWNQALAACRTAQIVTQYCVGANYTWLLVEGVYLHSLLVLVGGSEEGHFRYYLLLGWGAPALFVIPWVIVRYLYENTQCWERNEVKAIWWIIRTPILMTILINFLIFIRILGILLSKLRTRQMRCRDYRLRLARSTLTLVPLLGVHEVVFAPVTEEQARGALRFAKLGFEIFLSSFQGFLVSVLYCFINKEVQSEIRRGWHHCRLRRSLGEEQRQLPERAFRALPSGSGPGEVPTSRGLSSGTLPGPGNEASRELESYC

human GLP1-R = human GLP1-R (Homo sapiens, UniProt P43220); assay: GLP1-R internalization assay in HEK293 cells; assay type: cell-based; settings: for Internalization % TOP: normalized to maximum concentration of GLP-1 (100%)
human GLP1-R, sequence (P43220 24-463): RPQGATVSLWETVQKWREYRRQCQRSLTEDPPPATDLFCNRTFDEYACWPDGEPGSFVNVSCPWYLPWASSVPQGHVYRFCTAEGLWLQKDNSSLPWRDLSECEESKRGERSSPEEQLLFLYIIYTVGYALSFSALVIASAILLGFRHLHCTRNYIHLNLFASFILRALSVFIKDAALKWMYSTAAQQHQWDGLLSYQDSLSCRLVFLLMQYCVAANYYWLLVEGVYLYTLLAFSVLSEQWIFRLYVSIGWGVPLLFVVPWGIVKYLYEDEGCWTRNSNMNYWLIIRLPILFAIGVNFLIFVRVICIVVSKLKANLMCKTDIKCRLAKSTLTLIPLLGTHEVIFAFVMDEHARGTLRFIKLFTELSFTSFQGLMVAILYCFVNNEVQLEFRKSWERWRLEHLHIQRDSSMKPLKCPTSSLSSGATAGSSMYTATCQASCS

hGcgR = hGcgR (Homo sapiens, UniProt P47871); assay: Functional cAMP activation in the presence of 0.1% casein (no HSA); assay type: cell-based;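 also: intracellular cAMP rise after 30 min at 37 °C, read by HTRF against a cAMP standard curve, scaled from buffer only (0%) to maximal control ligand response (100%)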
hGcgR, sequence (P47871 26-477): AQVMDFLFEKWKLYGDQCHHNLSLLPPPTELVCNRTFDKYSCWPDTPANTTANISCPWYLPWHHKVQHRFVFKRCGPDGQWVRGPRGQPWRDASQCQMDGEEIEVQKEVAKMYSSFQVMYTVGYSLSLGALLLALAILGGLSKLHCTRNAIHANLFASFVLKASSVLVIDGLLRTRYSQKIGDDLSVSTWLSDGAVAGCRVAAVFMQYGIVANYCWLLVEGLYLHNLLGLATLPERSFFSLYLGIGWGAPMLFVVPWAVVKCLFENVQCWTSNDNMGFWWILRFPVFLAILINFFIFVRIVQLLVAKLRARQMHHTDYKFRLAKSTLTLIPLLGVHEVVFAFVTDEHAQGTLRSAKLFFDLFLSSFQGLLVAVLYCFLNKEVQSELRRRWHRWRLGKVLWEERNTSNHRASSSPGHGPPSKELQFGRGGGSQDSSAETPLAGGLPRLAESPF

[2] = Body weight in diet-induced obese C57BL/6 mice; assay type: in vivo; settings: percent of starting weight, DIO mice, mean ± SEM n=5
Method: To investigate the effect of the polypeptides as described herein on weight loss, exemplary polypeptides are dosed to C57BL/6 diet-induced obese (DIO) mice. Specifically, DIO male C57BL/6 mice (Taconic, Germantown, NY) maintained on a calorie-rich diet are used in the following studies. Mice are individually housed in a temperature-controlled (24° C.) facility with 12-hour light/dark cycle (lights on 22:00) and free access to food (TD95217) and water. After a minimum of 2 weeks acclimation to the facility, the mice are randomized according to their body weight, so each experimental group of animals would have similar starting body weight. The body weights range from 41 to 50 g. All groups contain 5 mice. […] Treatments are administered by subcutaneous (SC) injection (10 mL/kg) to ad libitum fed DIO mice 30 to 90 minutes prior to the onset of the dark cycle either once daily (QD) or once every 3 days (Q3D) for 9-16 days. Body weight and food intake are measured daily throughout the study. Body weight is presented as percent of the starting weight. […] Data are presented as mean±SEM of 5 animals per group in Table 7 below. Statistical analysis is performed using repeated measures ANOVA, followed by Dunnett's method comparison test.

hGLP-1R [3] = target: T2, hGLP-1R (Homo sapiens, UniProt P43220); assay: Functional cAMP activation in the presence of 0.1% casein (no HSA); assay type: cell-based;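 also: intracellular cAMP rise after 30 min at 37 °C read by HTRF, normalized between buffer only (0%) and maximal control ligand (100%), four-parameter variable-slope fit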
T2 sequence (P43220 24-463): as the sequence (P43220 24-463) above

hGIPR [4] = target: T1, hGIPR; assay: Functional cAMP activity in the presence of 1% HSA; assay type: cell-based
human GcgR = human GcgR (Homo sapiens, UniProt P47871); assay: Functional cAMP activity in the presence of 1% HSA; assay type: cell-based
human GcgR, sequence (P47871 26-477): as the sequence (P47871 26-477) above

hGLP-1R [5] = target: T2, hGLP-1R; assay: Functional cAMP activity in the presence of 1% HSA; assay type: cell-based
[6] = in the presence of 0.1% casein (no HSA), geometric mean, read-out: Relative cAMP EC50, hGIPR
[7] = HEK293 cells expressing SNAP-GLP-1R, read-out: GLP1R Internalization EC50
[8] = in the presence of 0.1% casein (no HSA), geometric mean, read-out: Relative cAMP EC50, hGcgR
[9] = in the presence of 0.1% casein (no HSA), geometric mean, read-out: Relative cAMP EC50, hGLP-1R
[10] = read-out: cAMP Rel EC50, hGLP-1R

Molecule | EC50 (hGIPR [1]; [6]) [nM] | EC50 (human GLP1-R; [7]) [nM] | Internalization % TOP (human GLP1-R) [%] | EC50 (hGcgR; [8]) [nM] | Body weight (%) ([2]; 10 nmol/kg SC Q3D, 14 days) | EC50 (hGLP-1R [3]; [9]) [nM] | EC50 (hGIPR [4]; read-out: cAMP Rel EC50, hGIPR) [nM] | EC50 (human GcgR; read-out: cAMP Rel EC50, hGcgR) [nM] | EC50 (hGLP-1R [5]; [10]) [nM] | EC50 (hGIPR [1]; read-out: Relative cAMP EC50, hGIPR) [nM] | EC50 (hGcgR; read-out: Relative cAMP EC50, hGcgR) [nM] | Body weight (%) ([2]; 10 nmol/kg SC QD, 15 days) | EC50 (hGLP-1R [3]; read-out: Relative cAMP EC50, hGLP-1R) [nM] | EC50 (hGIPR [1]) [nM] | EC50 (human GLP1-R) [nM] | EC50 (hGcgR) [nM] | EC50 (hGLP-1R [3]) [nM] | EC50 (hGIPR [4]) [nM] | EC50 (human GcgR) [nM] | EC50 (hGLP-1R [5]) [nM]
CC[C@H](C)[C@H](NC(=O)[C@H](Cc1ccccc1)NC(=O)[C@H](C)NC(=O)C(C)(C)NC(=O)[C@H](CCC(N)=O)NC(=O)[C@H](C)NC(=O)[C@H](CCCCNC(=O)COCCOCCNC(=O)CC[C@H](NC(=O)CCCCCCCCCCCCCCCCCCC(=O)O)C(=O)O)NC(=O)[C@H](CCCCN)NC(=O)[C@H](CC(=O)O)NC(=O)[C@H](CC(C)C)NC(=O)[C@](C)(CC(C)C)NC(=O)[C@H](CCCN)NC(=O)[C@H](CO)NC(=O)[C@H](Cc1ccccc1)NC(=O)[C@H](CC(=O)O)NC(=O)[C@H](CO)NC(=O)[C@@H](NC(=O)[C@H](Cc1ccccc1)NC(=O)[C@@H](NC(=O)CNC(=O)[C@H](CCC(N)=O)NC(=O)C(C)(C)NC(=O)[C@@H](N)Cc1ccc(O)cc1)[C@@H](C)O)[C@@H](C)O)C(=O)N[C@@H](CCC(=O)O)C(=O)N[C@@H](Cc1ccc(O)cc1)C(=O)N[C@@H](CC(C)C)C(=O)N[C@@H](CC(C)C)C(=O)N[C@@H](C)C(=O)NCC(=O)NCC(=O)N1CCC[C@H]1C(=O)N[C@@H](CO)C(=O)N[C@@H](CO)C(=O)NCC(=O)N[C@@H](CCC(=O)O)C(=O)N1CCC[C@H]1C(=O)N1CCC[C@H]1C(=O)N1CCC[C@H]1C(=O)N[C@@H](CO)C(=O)N[C@@H](CCC(=O)O)C(=O)NCC(N)=O [Example 29] | 0.35 | 129 | 57 | 11.1 | 75.96 +/− 3.77**** % | 3.56 | 70.1 | 1350 | 493 |  |  |  |  |  |  |  |  |  |  | 
CC[C@H](C)[C@H](NC(=O)[C@H](CC(C)C)NC(=O)[C@](C)(Cc1ccc(O)cc1)NC(=O)[C@@H](CCC(=O)O)NC(=O)[C@@H](NC(=O)[C@H](Cc1ccccc1)NC(=O)[C@H](CC(N)=O)NC(=O)C(C)(C)NC(=O)[C@H](CCC(N)=O)NC(=O)[C@H](C)NC(=O)[C@H](CCCCNC(=O)CC[C@H](NC(=O)CC[C@H](NC(=O)CCCCCCCCCCCCCCCCC(=O)O)C(=O)O)C(=O)O)NC(=O)[C@H](CCCN)NC(=O)[C@H](CC(=O)O)NC(=O)[C@H](CC(C)C)NC(=O)[C@](C)(CC(C)C)NC(=O)[C@@H](NC(=O)[C@](C)(CO)NC(=O)[C@H](Cc1ccncc1)NC(=O)[C@H](CC(=O)O)NC(=O)[C@H](CO)NC(=O)[C@@H](NC(=O)[C@](C)(Cc1ccccc1F)NC(=O)[C@@H](NC(=O)CNC(=O)[C@H](CCC(N)=O)NC(=O)C(C)(C)NC(=O)[C@@H](N)Cc1ccc(O)cc1)[C@@H](C)O)[C@@H](C)O)[C@@H](C)CC)[C@@H](C)CC)C(=O)N[C@@H](CCC(=O)O)C(=O)NCC(=O)NCC(=O)N1CCC[C@H]1C(=O)N[C@@H](CO)C(=O)N[C@@H](CO)C(=O)NCC(=O)N[C@@H](CCC(=O)O)C(=O)N1CCC[C@H]1C(=O)N[C@@H](CCC(=O)O)C(=O)N1CCC[C@H]1C(=O)N[C@@H](CCC(=O)O)C(N)=O [Example 452] |  |  |  |  |  |  | 0.846 | 240 |  | 0.0118 | 2.44 | 74.13 ± 4.11 | 0.235 |  |  |  |  |  |  | 
H-Y[Aib]QGTFTSDFSK[αMeL]LDKK([AEEA-γGlu-C18 diacid])AQ[Aib]AFIEYLLAGGPSSGEPPPSGE-NH2 [Example 23] | 0.178 | 51.5 | 67.2 | 5.13 | 80.86 +/− 1.25**** % | 2.98 | 25.5 | 573 | 308 |  |  |  |  |  |  |  |  |  |  | 
H-Y[Aib]QGTFTSDFSK[αMeL]LDKK([AEEA-γGlu-C20 diacid])AQQAFIEYLLA[Aib]GPSSGAPPPSEG-NH2 [Example 30] |  |  | 72.8 |  | 90.12 +/− 0.30** % |  |  |  |  |  |  |  |  | 0.247 | 70.4 | 5.22 | 3.18 | 72.9 | 969 | 806
H-Y[Aib]QGTFTSDFSK[αMeL]LDKK([AEEA-γGlu-C20 diacid])AQ[Aib]AFIEWLLAGGPSSGEPPPSGE-NH2 [Example 21] | 0.218 | 87.6 | 72.5 | 12.4 | 83.70 +/− 0.86**** % | 2.7 | 29.1 | 1510 | 324 |  |  |  |  |  |  |  |  |  |  | 
H-Y[Aib]QGTFTSDFSK[αMeL]LDKK([AEEA-γGlu-C20 diacid])AQ[Aib]AFIEYLLAGAPSSGEPPPSEG-NH2 [Example 24] |  |  |  |  | 86.10 +/− 1.98**** % |  |  |  |  |  |  |  |  |  |  |  |  |  |  | 
